Patent US20260374773A1, “MULTI-CYCLIC IRAK AND FLT3 INHIBITING COMPOUNDS AND USES THEREOF” (CHILDREN'S HOSPITAL MEDICAL CENTER, priority 2022, published 2026)

Target: T1, FLT3 ITD, D835V (Homo sapiens, UniProt P36888, D835V/ITD)
T1 sequence (P36888 27-993 D835V): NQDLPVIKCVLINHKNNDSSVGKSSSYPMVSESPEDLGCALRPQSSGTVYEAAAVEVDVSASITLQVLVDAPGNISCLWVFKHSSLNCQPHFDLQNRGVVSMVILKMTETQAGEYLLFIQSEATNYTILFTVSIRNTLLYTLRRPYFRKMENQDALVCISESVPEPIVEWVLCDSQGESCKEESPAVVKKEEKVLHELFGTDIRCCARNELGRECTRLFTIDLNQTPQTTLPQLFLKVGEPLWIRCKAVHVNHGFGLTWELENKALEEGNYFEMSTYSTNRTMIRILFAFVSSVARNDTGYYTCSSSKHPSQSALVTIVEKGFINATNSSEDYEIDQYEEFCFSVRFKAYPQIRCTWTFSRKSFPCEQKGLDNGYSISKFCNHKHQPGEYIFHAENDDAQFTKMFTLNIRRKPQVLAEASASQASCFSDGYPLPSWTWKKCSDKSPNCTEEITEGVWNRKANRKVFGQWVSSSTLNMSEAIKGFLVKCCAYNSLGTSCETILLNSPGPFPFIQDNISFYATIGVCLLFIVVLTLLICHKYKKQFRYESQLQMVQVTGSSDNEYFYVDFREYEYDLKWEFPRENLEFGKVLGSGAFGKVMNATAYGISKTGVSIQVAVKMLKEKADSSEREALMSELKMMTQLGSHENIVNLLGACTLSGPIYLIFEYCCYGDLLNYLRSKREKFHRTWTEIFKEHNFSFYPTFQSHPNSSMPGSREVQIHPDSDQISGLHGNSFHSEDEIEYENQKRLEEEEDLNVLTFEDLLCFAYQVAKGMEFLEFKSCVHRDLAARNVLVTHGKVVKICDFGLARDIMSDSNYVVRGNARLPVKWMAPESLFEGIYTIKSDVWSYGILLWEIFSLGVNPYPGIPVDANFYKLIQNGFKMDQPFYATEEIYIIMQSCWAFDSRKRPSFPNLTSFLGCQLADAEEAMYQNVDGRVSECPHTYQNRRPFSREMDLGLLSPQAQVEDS
Assay: DiscoverX KINOMEscan active site-directed competition binding, FLT3 ITD, D835V
Settings: Table 13; no ATP
Source text: (§1) Kinase binding data were obtained for various exemplary compounds prepared according to Examples 1-8 using the DiscoverX KINOMEscan® active site-directed competition binding site-directed assay protocol described below. […] As a result, the data report thermodynamic interaction affinities (Kd values), rather than IC50 values that are dependent on ATP concentrations. The assay uses a DNA-tagged version of the protein kinase, and an immobilized ligand bound to a solid support. Compounds that directly or indirectly prevent kinase binding to the immobilized ligand reduce the amount of kinase captured on the solid support, which is detected using an ultra-sensitive qPCR method. Affinity constants reported from the assay have been reported to be independent of the immobilized ligand used that is coupled to the solid support (See supplemental information in Fabian, M. A. et. al., (2005) Nat. Biotechnol. 23, 329-336; Wodicka, L. M. et. al., (2010) Chem. Biol. 17, 1241-1249.)
Kinase-tagged T7 phage strains were prepared in an E. coli host derived from the BL21 strain. E. coli were grown to log-phase and infected with T7 phage and incubated with shaking at 32 °C until lysis. The lysates were centrifuged and filtered to remove cell debris. The remaining kinases were produced in HEK-293 cells and subsequently tagged with DNA for qPCR detection. Streptavidin-coated magnetic beads were treated with biotinylated small molecule ligands for 30 minutes at room temperature to generate affinity resins for kinase assays. The liganded beads were blocked with excess biotin and washed with blocking buffer (SeaBlock (Pierce), 1% BSA, 0.05% Tween 20, 1 mM DTT) to remove unbound ligand and to reduce non-specific binding. […] Test compounds were prepared as 111x stocks in 100% DMSO. Kds were determined using an 11-point 3-fold compound dilution series with three DMSO control points. All compounds for Kd measurements are distributed by acoustic transfer (non-contact dispensing) in 100% DMSO. The compounds were then diluted directly into the assays such that the final concentration of DMSO was 0.9%. All reactions were performed in polypropylene 384-well plates. Each was a final volume of 0.02 mL. The assay plates were incubated at room temperature with shaking for 1 hour and the affinity beads were washed with wash buffer (1×PBS, 0.05% Tween 20). The beads were then re-suspended in elution buffer (1×PBS, 0.05% Tween 20, 0.5 μM nonbiotinylated affinity ligand) and incubated at room temperature with shaking for 30 minutes. The kinase concentration in the eluates was measured by qPCR. Binding constants (Kds) were calculated with a standard dose-response curve using the Hill equation. The Hill Slope was set to −1. Curves were fitted using a non-linear least square fit with the Levenberg-Marquardt algorithm.
as §1, with “9-12” for “1-8”
Kinase-tagged T7 phage strains were prepared in an E. coli host derived from the BL21 strain. […]

Kd, < 0.17 nM:
COc1cn2ncc(-c3nc(N[C@H]4CNCC[C@@H]4F)c(C#N)cc3F)c2nc1C(C)(C)O [Compound 10, 5-fluoro-2-(((3S,4S)-4-fluoropiperidin-3-yl)amino)-6-(5-(2-hydroxypropan-2-yl)-6-methoxypyrazolo[1,5-a]pyrimidin-3-yl)nicotinonitrile]
COc1cn2ncc(-c3nc(N[C@H]4CNCC[C@@H]4F)c(C#N)cc3F)c2nc1C1CC1 [Compound 7, 6-(5-cyclopropyl-6-methoxypyrazolo[1,5-a]pyrimidin-3-yl)-5-fluoro-2-(((3S,4S)-4-fluoropiperidin-3-yl)amino)nicotinonitrile]
COc1cn2ncc(-c3nc(N[C@H]4CNCC[C@@H]4F)c(F)cc3F)c2nc1C(C)(C)O [Compound 13, 2-(3-(3,5-difluoro-6-(((3S,4S)-4-fluoropiperidin-3-yl)amino)pyridin-2-yl)-6-methoxypyrazolo[1,5-a]pyrimidin-5-yl)propan-2-ol]

Same assay, conditions: Table 19; no ATP

Kd, < 0.17 nM:
COc1cn2ncc(-c3nc(N[C@@H]4CCCNC4)ncc3F)c2nc1C1CC1 [Compound 14a, (R)-4-(5-cyclopropyl-6-methoxypyrazolo[1,5-a]pyrimidin-3-yl)-5-fluoro-N-(piperidin-3-yl)pyrimidin-2-amine]
COc1cn2ncc(-c3nc(N[C@H]4CNCC[C@@H]4F)ncc3F)c2nc1C(C)(C)O [Compound 6a, 2-(3-(5-fluoro-2-(((3S,4S)-4-fluoropiperidin-3-yl)amino)pyrimidin-4-yl)-6-methoxypyrazolo[1,5-a]pyrimidin-5-yl)propan-2-ol]
COc1cn2ncc(-c3nc(N[C@H]4CNCC[C@@H]4F)ncc3F)c2nc1C1CC1 [Compound 15a, 4-(5-cyclopropyl-6-methoxypyrazolo[1,5-a]pyrimidin-3-yl)-5-fluoro-N-((3S,4S)-4-fluoropiperidin-3-yl)pyrimidin-2-amine]
COc1cn2ncc(-c3cncc(N[C@H]4CNCC[C@@H]4F)n3)c2nc1C1CC1 [Compound 12a, 6-(5-cyclopropyl-6-methoxypyrazolo[1,5-a]pyrimidin-3-yl)-N-((3S,4S)-4-fluoropiperidin-3-yl)pyrazin-2-amine]
COc1cn2ncc(-c3ccnc(N[C@H]4CNCC[C@@H]4F)n3)c2nc1C1CC1 [Compound 7a, 4-(5-cyclopropyl-6-methoxypyrazolo[1,5-a]pyrimidin-3-yl)-N-((3S,4S)-4-fluoropiperidin-3-yl)pyrimidin-2-amine]
